Measured values: US11760784B2, “Compositions comprising PEDF-derived short peptides and uses thereof” (BRIM Biotechnology, Inc., priority 2016, dated 2023)
Entries after “also recorded” stand apart in the source; their conditions may differ.

Assays:
[1] = test system: desiccating stress-induced dry eye; assay: Corneal fluorescein staining in desiccating stress-induced dry eye (CEC) mice; type: in vivo, C57BL/6 mice
Experimental: In an animal model for dry eye diseases, mice were placed in a controlled environment chamber (CEC) to induce dry eyes as previously described (Barabino et al., 2005). Mice placed in the CEC were exposed to a relative humidity (RH)<25%, temperature of 20 to 22° C., with an airflow of 15 L/min, 12 hours per day. Non-Stressed mice were kept in a normal environment (RH >50%, no air flow, temperature of 21-23° C.) for the same duration. After 14 days, non-stressed mice were treated with vehicle, while the stressed mice were treated with either a test peptide (e.g., the 29mer PDSP) or vehicle solution (Vehicle group) for 5 days. Then, the cornea was examined with fluorescein staining.
Seven to 8-week-old female C57BL/6 mice were used for these experiments. Experimental procedures were approved by the Mackay Memorial Hospital Review Board and conducted according to the ARVO Statement for the Use of Animals in Ophthalmic and Vision Research.
(§1) Dry eye was induced by placing mice in a controlled environment chamber (CEC) as previously described (Barabino et al., 2005). Briefly, mice placed in the CEC were exposed to a relative humidity (RH)<25%, temperature of 20 to 22° C., and airflow of 15 L/min, 12 hours per day. Non-stressed (NS) mice without stress-induced dry eye were kept in a normal environment (RH >50%, no air flow, temperature of 21-23° C.) for the same duration. Corneal fluorescein staining and
Animals were anesthetized by an intraperitoneal injection of a mixture of zoletil (6 mg/kg) and xylazine (3 mg/kg). Corneal epithelial injury was determined by staining with topical fluorescein (Fluor-I-Strip, Ayerst Laboratories, Philadelphia, Pa.). Corneal fluorescein staining was examined with a slit-lamp biomicroscope under cobalt blue light and photographed with a digital camera. Dye staining of the cornea was scored in a manner as follows: score 0 for no punctuate staining; score 1 when less than one third of the cornea was stained; score 2 when two thirds or less was stained; and score 3 when more than two thirds was stained (Horwath-Winter J 2013).
To determine whether PDSP have therapeutic effects in a desiccating stress (DS)-induced ocular surface defects, mice were housed at controlled environment chamber (CEC) for 14 days to create ocular surface disruption. After 14 days in CEC, we used mice with fluorescence scores that are above 2 for the first experiments (FIG. 1A). Subsequently, dry eyes were treated topically with PDSP at 25-200 μM (3 times/day) or PDSP vehicle (1% CMC in BSS) for another 5 days while maintaining the same desiccating stress protocol.
To investigate whether the PDSP can suppress DS-induced corneal epithelial disruption, we applied the 14-day desiccating stress protocol to mice, and treated these mice topically with PDSP 3 times a day.

[2] = test system: desiccating stress-induced dry eye; assay: Tear production by phenol red thread test in CEC dry eye mice; type: in vivo, C57BL/6 mice; conditions: CEC 14 days
Experimental: as §1
Tear production was measured with phenol red-impregnated cotton threads (Zone-Quick; Oasis, Glendora, CA). The validity of this test in mice was performed as previously described (Dursun et al., 2002). The threads were held with jeweler forceps and placed in the lateral canthus for 60 seconds. The tear production is expressed in millimeters of thread that is wet by the tear and turned red.
To determine whether PDSP have therapeutic effects in a desiccating stress (DS)-induced ocular surface defects, mice were housed at controlled environment chamber (CEC) for 14 days to create ocular surface disruption. After 14 days in CEC, we used mice with fluorescence scores that are above 2 for the first experiments (FIG. 1A). […]

[3] = test system: goblet cells in the conjunctiva; assay: PAS staining of conjunctival goblet cells in CEC dry eye mice; type: in vivo, C57BL/6 mice; conditions: CEC 14 days, then eye drop for 5 days; vehicle 37±1.1; non-stressed 58±3.1
Experimental: Reduced mucin production could result from reduced goblet cells. […] Briefly, C57BL6 mice were housed in CEC for 14 days and then treated with PDSP or vehicle for additional 5 days. Non-stressed eyes are included as non-stressed controls (NS).
as §1
After animals were euthanized, eyes were surgically excised, fixed in 10% formalin, paraffin embedded, and cut into 5-μm sections. […] PAS-positive goblet cells in the conjunctiva were measured in five sections from each eye.

4-HNE = 4-HNE immunohistochemistry (lipid peroxidation) in cornea and conjunctiva of CEC mice; type: in vivo; conditions: PDSP from beginning of 14 days in CEC
From the text: For this test, mice were housed in CEC for 14 days and the PDSP treatment started at the beginning of housing in CEC. Then, the production of oxidative stress products (e.g., 4-hydroxy-2-nonenal, 4-HNE) was examined. 4-HNE was found throughout animal tissues, and in higher quantities during oxidative stress due to the increase in the lipid peroxidation. 4-HNE contains a reactive aldehyde, which may modify proteins. The 4-HNE-modified proteins may be detected with antibodies specific for the 4-HNE moiety.
Oxidative stress-induced lipid peroxidation was assessed by immunohistochemical detection of 4-hydroxy-2-nonenal (4HNE) in the cornea and conjunctiva. Formalin-fixed, paraffin-embedded eye specimens were deparaffinized in xylene and rehydrated in a graded series of ethanol concentrations. Slides were blocked with 10% goat serum for 60 min and then incubated with primary antibody against 4-HNE (1:100 dilution) (ab46545, Abcam) 4 hours at room temperature. The slides were subsequently incubated with the appropriate peroxidase-labeled goat immunoglobulin (1:500 dilution; Chemicon, Temecula, Calif.) for 20 min and then incubated with chromogen substrate (3,3′-diaminobenzidine) for 2 min before counterstaining with hematoxylin.

[4] = test system: desiccating stress-induced dry eye; assay: Corneal fluorescein staining in desiccating stress-induced dry eye (CEC) mice; type: in vivo, C57BL/6 mice; conditions: CEC 14 days, then peptide for 3 days (FIG. 11)

“PDSP: 29mer, residues 93-121 of human PEDF: SLGAEQRTESIIHRALYYDLISSPDIHGT (SEQ ID NO:4) (listed as Homo sapiens)” was tested, and the “corneal fluorescein staining score (0 to 3)” value ([1]; preventive: 100 μM PDSP topically 3 times a day from beginning of 14 days in CEC, vehicle 1.7±0.3) was 0.7±0.2, the “corneal surface damage by fluorescein staining” value ([1]; therapeutic: CEC 14 days to induce dry eye, then peptide on the eyes for 5 days) was “essentially gone” and the “tear production (cotton thread test)” value ([2]; then PDSP for 5 days, vehicle 4.5±0.2, day 0 3.8±0.5, non-stressed 5.4±0.4) was 5±0.3 mm. The “tear production (phenol red thread), human vs mouse PDSP” value ([2]; then peptide for 3 days (FIG. 12), listed as human PDSP) was “capable of restore; also recorded: improved tear productions to the same extent”, the “conjunctival goblet cell counts (PAS-positive cells)” value [3] was 46±3.8 and the “4-HNE signal in the conjunctiva” value (4-HNE; versus vehicle) was 4-HNE signal was clearly stronger in vehicle-treated eyes than in eyes subjected to the PDSP treatment. For the same substance, the “number of cells positively stained for 4-HNE in corneal epithelia” value (4-HNE; NS 1.9±0.6, vehicle 20.1±1.4) was 5.3±1.0, the “corneal damage by corneal fluorescein staining, human vs mouse 29mer” value [4] was “protection from corneal surface damages” and the “corneal damage by corneal fluorescein staining, human vs mouse 29mer” value ([4]; listed as human PDSP) was “capable of restore the ocular surface damages”.
